Biological target: TEAD2 (Homo sapiens (Human), UniProt Q15562)
Assay: In vitro palmitoylation (TEAD2 autopalmitoylation, streptavidin blot)
Assay type: biochemical
Conditions: compound at 10 μM; Table 2
In short: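 Recombinant GST- or His6-TEAD2 (500 ng) preincubated 15 min with compound, then 30 min with 1 μM alkyne palmitoyl-CoA; click-labelled with biotin-azide (1 h, RT). Streptavidin-HRP blot band intensity quantified after SDS-PAGE; inhibition of autopalmitoylation relative to DMSO control.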

Sequence of TEAD2 (Q15562 whole entry): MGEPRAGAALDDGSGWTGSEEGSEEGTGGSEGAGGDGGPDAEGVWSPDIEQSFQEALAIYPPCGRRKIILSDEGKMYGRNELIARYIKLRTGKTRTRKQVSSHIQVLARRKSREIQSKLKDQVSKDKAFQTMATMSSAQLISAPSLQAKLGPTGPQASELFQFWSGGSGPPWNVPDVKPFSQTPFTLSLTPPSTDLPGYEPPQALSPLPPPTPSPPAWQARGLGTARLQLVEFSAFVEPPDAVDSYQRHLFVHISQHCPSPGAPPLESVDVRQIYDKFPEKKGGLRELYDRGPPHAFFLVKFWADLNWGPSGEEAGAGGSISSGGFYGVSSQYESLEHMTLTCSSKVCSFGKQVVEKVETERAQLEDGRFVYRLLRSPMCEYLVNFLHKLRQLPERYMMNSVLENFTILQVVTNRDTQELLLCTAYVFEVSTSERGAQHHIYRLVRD

| inhibition at 10 µM [%] | % of inhibition of TEAD2 palmitoylation at 10 μM [%] | Structure (SMILES) |
| --- | --- | --- |
| 33 | – | CN(c1ccc(Nc2cccc(C(=O)NC34CC5CC(CC(C5)C3)C4)c2)cc1)c1ccccc1C(=O)O [Compound 232] |
| 14 | – | O=C(O)c1ccccc1Nc1ncc(Nc2ccc(C34CC5CC(CC(C5)C3)C4)cc2Cl)cn1 [compound 284] |
| 63 | – | O=C(O)c1cnccc1Nc1ccc(Nc2ccc(C34CC5CC(CC(C5)C3)C4)cc2Cl)cc1 [Compound 75] |
| 40 | – | O=C(O)c1ccccc1Nc1ccc(Nc2ccc(C34CC5CC(CC(C5)C3)C4)cc2)cc1C(F)(F)F [Compound 80] |
| 49 | 41 | O=C(CNc1ccc(Nc2ncccc2C(=O)O)cc1)Nc1ccc(C23CC4CC(CC(C4)C2)C3)cc1 [Compound 181] |
| 58 | – | CC12CC3CC(C)(C1)CC(c1ccc(NC(=O)c4ccc(Nc5cccc(C(=O)O)n5)cc4)cc1)(C3)C2 [Compound 227] |
| 71 | – | O=C(Cc1ccc(Nc2ncccc2C(=O)O)cc1)Nc1ccc(C23CC4CC(CC(C4)C2)C3)cc1 [Compound 184] |
| 100 | – | COc1cccc(N(C)c2ccc(N(C)c3ccc(C45CC6CC(CC(C6)C4)C5)cc3)cc2)c1C(=O)O [Compound 238] |
| 89 | – | O=C(Nc1ccccc1C(=O)O)c1ccc(Nc2ccc(C34CC5CC(CC(C5)C3)C4)cc2Br)cc1 [Compound 228] |
| 80 | – | O=C(Nc1ccc(Nc2ccccc2C(=O)O)cc1)c1ccc(C23CC4CC(CC(C4)C2)C3)cc1 [Compound 157] |
| 74 | – | O=C(O)c1ccccc1Nc1ccc(Nc2ccc(OCC34CC5CC(CC(C5)C3)C4)cc2)cc1 [Compound 205] |
| 90 | – | O=C(O)c1cccnc1Nc1cc(Nc2ccc(C34CC5CC(CC(C5)C3)C4)cc2)cc(C(F)(F)F)c1 [Compound 27] |
| 65 | – | O=C(O)c1ccncc1Nc1ccc(Nc2ccc(C34CC5CC(CC(C5)C3)C4)cc2Cl)cc1 [Compound 83] |
| 98 | 100 | O=C(Nc1ccccc1C(=O)O)c1cccc(Nc2ccc(C34CC5CC(CC(C5)C3)C4)cc2)c1 [Compound 239] |
| 42 | – | CCCCN(CCCC)Cc1ccc(Nc2ccc(Nc3ccccc3C(=O)O)cc2)cc1 [Compound 169] |
| 37 | – | O=C(O)c1cccnc1Nc1ccc2c(c1)N(Cc1ccc(C34CC5CC(CC(C5)C3)C4)cc1Cl)CC2 [Compound 131] |
| 0 | – | CC(C)COc1ccc(Nc2ccc(N(C)c3ccc(C45CC6CC(CC(C6)C4)C5)cc3)cc2)c(C(=O)O)c1 [CP-453] |
| 37 | – | COc1ccc(Nc2ccc(N(C)c3ccc(C(F)(F)F)cc3)cc2)c(C(=O)N(C)C)c1 [compound 431] |
| 88 | 73 | O=C(Nc1ccc(C23CC4CC(CC(C4)C2)C3)cc1)c1cccc(Nc2ccccc2C(=O)O)c1 [Compound 214] |
| 52 | – | O=C(N[C@H]1CCC[C@H]1C(=O)O)c1ccc(Nc2ccc(C34CC5CC(CC(C5)C3)C4)cc2Cl)cc1 [Compound 77] |

Same assay, conditions: compound at 10 μM; Table 3

| inhibition at 10 µM [%] | Structure (SMILES) |
| --- | --- |
| 90 | Cc1cc(Oc2ccc(C34CC5CC(C)(CC(C)(C5)C3)C4)cc2Cl)ccc1Nc1ccccc1C(=O)O [CP-561] |
| 73 | COc1ccc(Nc2ccc(C3CC3)cc2N(C)c2ccc(C3CCCCC3)cc2)c(C(=O)O)c1 [CP-623] |
| 97 | CNS(=O)(=O)c1ccc(Nc2ccc(N(C)c3ccc(C4CCCCC4)cc3Cl)cc2C)c(C(=O)O)c1 [CP-671] |
| 5 | COc1ccc(Nc2cnc(N(C)c3ccc(C(F)(F)F)cc3)nc2)c(C(=O)O)c1 [CP-602] |
| 83 | CN(c1ccc(Nc2ccc(NS(C)(=O)=O)cc2C(=O)O)cc1)c1ccc(C(F)(F)F)cc1 [CP-613] |
| 97 | O=C(O)c1cccc(Nc2cc(Nc3ccc(C4CCCCC4)cc3Cl)cc(C(F)(F)F)c2)c1 [CP-676] |
| 15 | COc1ccc(Nc2ccc(N(C)c3cc(C(F)(F)F)nn3C)cc2)c(C(=O)O)c1 [CP-624] |
